# “Also recorded” adds a separate entry of the source. Counter-ions that a name gives are not always drawn.
# Test system: mutant mice (Advillin^Cre; Mecp2^f/y, Advillin^Cre; Shank3^f/f, Advillin^Cre; Gabrb3^f/+, Advillin^Cre; Gabrb3^f/f)
# Assay: Tactile prepulse inhibition (PPI) assay and response to air puff alone, acute Compound 5
# Format: in vivo, mouse
# Settings: 2 mg/kg i.p.
# Protocol: FIG. 1 is a graph showing percent inhibition of an acoustic startle response (PPI) to a 125-dB noise (pulse), when the startle noise was preceded by a light air puff (prepulse, 0.9 PSI, 50 ms) at an interstimulus interval of 250 ms. Values are expressed as percent of control littermates' performance. Experiments were performed in mutant mice (Advillin^Cre; Mecp2^f/y, Advillin^Cre; Shank3^f/f) and control littermates, 30 minutes after an intraperitoneal injection of either saline (vehicle) the peripherally restricted Compound 5 (2 mg/kg). Two-way ANOVA, with post-hoc Holm-Sidak's test, *, p<0.05, when comparing mutants to control within same treatment; I, p<0.05, or p<0.10, when comparing the same genotype across different treatments.
# FIG. 2 is a graph showing response to a light air puff stimulus alone (0.9 PSI, 50 ms). Responses are expressed as a percent of startle response to a 125-B noise. Experiments were performed in mutant mice (Advillin^Cre; Mecp2^f/y, Advillin^Cre; Shank3^f/f) and control littermates, 30 minutes after an intraperitoneal injection of either saline (vehicle) the peripherally restricted Compound 5 (2 mg/kg). Two-way ANOVA, with post-hoc Holm-Sidak's test, *, p<0.05, when comparing mutants to control within same treatment; I, p<0.05, when comparing the same genotype across different treatments.
# FIG. 3 is a graph showing magnitude of startle response to a 125-dB noise. Experiments were performed in mutant mice (Advillin^Cre; Mecp2^f/y, Advillin^Cre; Shank3^f/f) and control littermates, 30 minutes after an intraperitoneal injection of either saline (vehicle) the peripherally restricted Compound 5 (2 mg/kg).
# FIG. 4 is a graph showing the percent inhibition of an acoustic startle response (PPI) to a 125-dB noise (pulse), when the startle noise was preceded by a light air puff (prepulse, 0.9 PSI, 50 ms) at an interstimulus interval of 250 ms. Values were expressed as percent of control littermates' performance. Experiments were performed in mutant mice (Advillin^Cre; Mecp2^f/y, Advillin^Cre; Shank3^f/f, Advillin^Cre; Gabrb^3f/+, Advillin^Cre; Gabrb3^f/f) and control littermates, 30 minutes after an intraperitoneal injection of either saline (vehicle) or Compound 5 at 2 mg/kg. […] Two-way ANOVA, with post-hoc Holm-Sidak's test, *, p<0.05, when comparing mutants to control within same treatment; t, p<0.05, or #, p<0.10, when comparing the same genotype across different treatments.
# FIG. 5 is a graph showing the response to a light air puff stimulus alone (0.9 PSI, 50 ms). Responses were expressed as a percent of startle response to a 125-B noise. Experiments were performed in mutant mice (Advillin^Cre; Mecp2^f/y, Advillin^Cre; Shank3^f/f, Advillin^Cre; Gabrb3^f/+, Advillin^Cre; Gabrb3^f/f) and control littermates, 30 minutes after an intraperitoneal injection of either saline (vehicle) or Compound 5 at 2 mg/kg. […] Two-way ANOVA, with post-hoc Holm-Sidak's test, *, p<0.05, when comparing mutants to control within same treatment; f, p<0.05, when comparing the same genotype across different treatments. […]
# FIGS. 1 and 4 show the percent inhibition of an acoustic startle response (PPI) to a 125-dB noise (pulse), when the startle noise was preceded by a light aft puff (prepulse, 0.9 PSI, 50 ms) at an interstimulus interval of 250 ms. Values were expressed as percent of control littermates' performance. […]
# [1] = Advillin^Cre, Mecp2^f/y, Shank3^f/f, Gabrb3^f/+ mice, 30 min, vs saline
smiles,measurement,setting,value
"NC1C=C(C(=O)O)CCC1 (centres unmarked) [Compound 5, 3-aminocyclohex-1-enecarboxylic acid hydrochloride]",tactile (hairy skin) sensitivity in mice with complete loss of GABA-A receptors on peripheral somatosensory neurons,"Advillin^Cre, Gabrb3^f/f mice, 30 min, hydrochloride, 2 mg/kg",do not show a reduction in tactile sensitivity; also recorded: did not show any improvements in hairy skin sensitivity
same,"responsivity to a light air puff stimulus alone (0.9 PSI, 50 ms)",[1],reduced responsivity to an air puff stimulus
same,tactile PPI performance,[1],reduced tactile PPI performance
same,hairy skin hypersensitivity (tactile PPI assay and response to air puff stimulus alone),"Mecp2, Shank3 and Gabrb3 heterozygous conditional mutant mice, 30 minutes after injection, hydrochloride, 2 mg/kg",reduces hairy skin over-reactivity; also recorded: significantly reduced hairy skin hypersensitivity; also recorded: reduces hairy skin hypersensitivity
same,"motor behaviors or sedation, average startle amplitude elicited by a 125-dB noise","mutant mice and control littermates, 30 min, hydrochloride, 2 mg/kg",did not have negative effects on motor behaviors or sedation; also recorded: no significant differences between any genotypes or treatment groups

# Reference: patent publication US12252457B2, “Compositions and methods for reducing tactile dysfunction, anxiety, and social impairment” (President and Fellows of Harvard College, priority 2018, dated 2025)
